Data taken from patent US20140081017A1, “Histone Deacetylase Inhibitors for Enhancing Activity of Antifungal Agents” (METHYLGENE INC., priority 2012, published 2014).
Converted amounts (≈) assume the structure as drawn. Where two headings read alike, the source gives them in different places.

Assays:
C. glabrata [1] = details: based on a prior study / previously observed; cited from earlier work
Candida parapsilosis [2] = details: range not explained, cited from earlier work
C. glabrata [3] = assay: Checkerboard FIC assay in combination with fluconazole (MIC alone and in combination, FICI); format: cell-based, Candida glabrata; details: Nakaseomyces glabratus; C. glabrata, this study, checkerboard assay; read-out: MIC of fluconazole alone against both test isolates
Outline: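 C. glabrata was tested by CLSI broth microdilution checkerboard, crossing 2-fold dilutions of compound with 2-fold dilutions of fluconazole. The medium was RPMI with 0.165 M MOPS at pH 7.0, inoculated from a 0.5 McFarland suspension diluted 1:100, then incubated about 48 h at 35 °C. Single-agent MICs gave the FIC and FICI values.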

Candida albicans [4] = details: 48 hr; range not explained; cited from earlier work
Candida parapsilosis [5] = assay: Minimal Inhibitory Concentration (MIC) assay, broth microdilution per CLSI; format: cell-based; details: Lodderomyces parapsilosis, read-out: Minimum Inhibitory Concentrations against Yeast Isolates, Candida parapsilosis;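 also: two read times 24 hr and 48 hr of incubation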
Outline: (§1)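 Yeasts incubated ~24-48 hr at 35°C in MOPS-buffered RPMI (0.165 M, pH 7.0) containing DMSO-dissolved compound, following CLSI microdilution. Inoculum: 0.5 McFarland, diluted 1:100. MIC read visually as lowest concentration inhibiting growth (prominent-decrease endpoint for fluconazole).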

Candida glabrata = assay: as above; format: cell-based; details: Nakaseomyces glabratus, read-out: Minimum Inhibitory Concentrations against Yeast Isolates, Candida glabrata;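 also: two read times 24 hr and 48 hr of incubation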
Outline: as §1

Candida albicans [6] = assay: as above; format: cell-based; details: Candida albicans, read-out: Minimum Inhibitory Concentrations against Yeast Isolates, Candida albicans
Outline: as §1

[7] = 24 hr reading (first value of cell 24 hr/48 hr)
[8] = 48 hr reading (second value of cell 24 hr/48 hr)
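For Minimum Inhibitory Concentrations against Yeast Isolates, Candida albicans in this document: two read times 24 hr and 48 hr of incubation.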

MIC (C. glabrata [3]): > 8 µg/mL | MIC (Candida parapsilosis [5]; [7]): 2 µg/mL (≈ 6.53 µM) | MIC (Candida parapsilosis [5]; [8]): 4 µg/mL (≈ 13.1 µM) | MIC (Candida glabrata; [7]): 4 µg/mL (≈ 13.1 µM) | MIC (Candida glabrata; [8]): 8 µg/mL (≈ 26.1 µM) | MIC (Candida albicans [6]; [7]): 0.25 µg/mL (≈ 0.816 µM) | MIC (Candida albicans [6]; [8]): 1 µg/mL (≈ 3.27 µM)
Structure (SMILES): OC(Cn1cncn1)(Cn1cncn1)c1ccc(F)cc1F [Fluconazole, reference compound]
MIC of fluconazole alone against both test isolates (C. glabrata [1]): > 64 µg/mL | MIC range in parentheses below the comparator's MIC, Candida parapsilosis (Candida parapsilosis [2]; 24 hr): 0.5 to 4 µg/mL | MIC range in parentheses below the comparator's MIC, Candida parapsilosis (Candida parapsilosis [2]; 48 hr): 1 to 4 µg/mL | MIC range in parentheses below the comparator's MIC, Candida albicans (Candida albicans [4]): (NA/0.25-1) ug/mL
